From US8278320B2, “Azabicyclo[2.2.1]heptane compounds as alpha-7 nicotinic acetylcholine receptor ligands” (Bristol-Myers Squibb Company, priority 2009, dated 2012) come the findings set out here.

Where two headings read alike, the source gives them in different places.

The target of test [1] is T1, α-7 nicotinic ACh receptor ion channel expressed in mammalian HEK 293 cells (Rattus norvegicus, UniProt Q05941). Briefly: Ca2+-sensitive, fluorescence-based FLIPR assay for α-7 nicotinic acetylcholine receptor channel function (agonist activity). It counts as cell-based. The method, then:
I) α7 Nicotinic Acetycholine Receptor Binding. Membranes were prepared for binding using HEK293 cells stably expressing the rat α7 nicotinic acetycholine receptor (rat α7 nAChR). Cells were homogenized at 4° C. in hypotonic lysis buffer consisting of 10 mM Tris (pH 7.4), 5 mM EDTA and protease inhibitors and centrifuged at 32000×g for 20 minutes. The pellet was washed once in membrane wash buffer consisting of 50 mM Tris (pH 7.4), 1 mM EDTA and protease inhibitors and centrifuged at 32000×g for 20 minutes. This pellet was then resuspended in assay buffer consisting 50 mM KH2PO4 (pH 7.4 at 25° C.), 1 mM EDTA, 0.005% Triton-X 100 and 0.1% (v/v) Sigma Protease Inhibitor Cocktail. Aliquots were then frozen in dry ice/ethanol and kept at −80° C. until the day of the assay. II) A Ca^2+-Sensitive, Fluorescence-Based Assay α-7 for Nicotinic Acetylcholine Receptor Channel Function In Mammalian Cells (“FLIPR”). Summary: Lead compounds are evaluated for agonist activity at α-7, α3β4, α4αβ2, and α1β1δ1ε sub-types of nicotinic ACh receptor ion channels expressed in mammalian HEK 293 cells. Agonist potency and efficacy values are determined from kinetic fluorescence Ca^2+ influx measurements made using a 384 well FLIPR (Fluorescence Image Plate Reader). […] The basal fluorescence from the cells is monitored in real time, followed by the acute addition of test compounds. […]
Target sequence in this assay (Q05941 23-502 limits assumed): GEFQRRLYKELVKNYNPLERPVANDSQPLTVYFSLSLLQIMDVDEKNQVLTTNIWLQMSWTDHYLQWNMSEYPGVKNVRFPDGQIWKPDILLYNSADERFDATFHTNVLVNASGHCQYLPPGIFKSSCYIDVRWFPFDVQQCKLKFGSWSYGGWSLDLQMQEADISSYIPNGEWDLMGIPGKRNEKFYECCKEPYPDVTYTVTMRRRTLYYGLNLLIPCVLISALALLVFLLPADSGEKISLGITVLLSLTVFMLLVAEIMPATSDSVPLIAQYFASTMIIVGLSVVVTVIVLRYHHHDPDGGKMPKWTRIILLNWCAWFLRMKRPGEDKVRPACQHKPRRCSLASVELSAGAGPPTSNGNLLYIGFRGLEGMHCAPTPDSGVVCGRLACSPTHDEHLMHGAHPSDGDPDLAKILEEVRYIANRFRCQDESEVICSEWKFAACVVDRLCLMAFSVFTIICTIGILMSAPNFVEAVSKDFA

Test [2] addresses T1, α-7 nicotinic ACh receptor ion channel expressed in mammalian HEK 293 cells. The test is described as above. It counts as cell-based. On the set-up: expressed in transfected cells. The conditions noted are these: Ca2+ flux, HEK-293 cells, Fluo-4. Here is the method: I) α7 Nicotinic Acetycholine Receptor Binding. Membranes were prepared for binding using HEK293 cells stably expressing the rat α7 nicotinic acetycholine receptor (rat α7 nAChR). Cells were homogenized at 4° C. in hypotonic lysis buffer consisting of 10 mM Tris (pH 7.4), 5 mM EDTA and protease inhibitors and centrifuged at 32000×g for 20 minutes. The pellet was washed once in membrane wash buffer consisting of 50 mM Tris (pH 7.4), 1 mM EDTA and protease inhibitors and centrifuged at 32000×g for 20 minutes. This pellet was then resuspended in assay buffer consisting 50 mM KH2PO4 (pH 7.4 at 25° C.), 1 mM EDTA, 0.005% Triton-X 100 and 0.1% (v/v) Sigma Protease Inhibitor Cocktail. Aliquots were then frozen in dry ice/ethanol and kept at −80° C. until the day of the assay. II) A Ca^2+-Sensitive, Fluorescence-Based Assay α-7 for Nicotinic Acetylcholine Receptor Channel Function In Mammalian Cells (“FLIPR”). Summary: Lead compounds are evaluated for agonist activity at α-7, α3β4, α4αβ2, and α1β1δ1ε sub-types of nicotinic ACh receptor ion channels expressed in mammalian HEK 293 cells. Agonist potency and efficacy values are determined from kinetic fluorescence Ca^2+ influx measurements made using a 384 well FLIPR (Fluorescence Image Plate Reader). […] In this assay, channel expressing HEK cell lines seeded in 384 well assay plates are loaded with a membrane permeant fluorescent Ca^2+ indicator dye, whose 510 nm green emission signal increases in response to elevation of intracellular Ca^2+ concentration. The basal fluorescence from the cells is monitored in real time, followed by the acute addition of test compounds.
Materials and Methods: Reagents: The acetomethoxy (AM) ester of the Ca^2+ indicator dye Fluo-4 was obtained from InVitrogen, (Carlsbad, Calif.). Acetylcholine and all buffer constituents were purchased from Sigma Chemical Company, St. Louis, Mo. G418 and Minimal Essential Medium were purchased from InVitrogen Life Technologies, Carlsbad, Calif. Fetal bovine serum was purchased from (InVitrogen, Carlsbad, Calif.).
Cell Culture: HEK-293 cells were grown in Minimal Essential Medium containing 10% (v/v) fetal bovine serum at 37° C. in a 5% CO2 incubator. HEK-293 cells stably expressing the ion channels were grown in the same medium with the addition of 500 μg/ml G418.
Ca^2+ flux assays of Ca^2+ channels expressed in HEK-293 cells: HEK-293 cells expressing the ion channels of interest were plated in 384 well, black-walled, clear-bottomed, poly-D-lysine coated plates at a density of ˜20,000 cells/well in 20 μl of Minimal Essential Medium containing 10% (v/v) fetal bovine serum and incubated for 2 days at 29° C. in a 5% CO2 incubator. Prior to assay, cells were loaded with the Fluo-4 AM ester. […] Dye loading was allowed to proceed for 90 minutes at room temperature at which time the dye loading solution was removed and replaced with 40 μl/well of Hanks buffer. Cells loaded with dye were loaded onto a FLIPR384 (Molecular Devices, Sunnyvale, Calif.). Fluo-4 dye was excited using the 488 nm line of an argon laser. Emission was filtered using a 540+/−30 nm bandpass filter. For evaluation of the effects of test compounds using the Ca^2+ flux assay, compounds to be tested were provided in assay ready plates. For nicotinic receptor ion channel expressing cells, the assay was initiated by the addition of 20 μl/well of Hanks buffer containing test compounds. For all assays, data were collected at 1 Hz for 10 seconds (baseline), at which time the compound containing stimulus buffers are added, and further measurements collected at 0.33 Hz for 3 min.
Data Analysis: The statistical robustness of the nicotinic receptor Ca^2+ flux assays is determined from blanks and totals wells. […] The raw fluorescence units data files generated on the FLIPR plate reader are automatically exported and processed by in-house data analysis tools.
Target sequence in this assay (Q05941 23-502): as the sequence (Q05941 23-502 limits assumed) above
Background: Calcium flux is commonly read through the fluorescence of an indicator in the cells.

The mark [3] stands for this setting: FLIPR α7 activity rating (EC50, nM), agonist potency class.
[4] abbreviates: FLIPR α7-HI (EC50, nM), agonist potency.
Setting [5] is: agonist potency class, read-out: FLIPR α7 activity rating (EC50).

Turning to `c1ccc2sc(NC3=NC[C@@]4(CN5CC[C@@H]4C5)O3)nc2c1`, in test [1], the EC50 – broadly, the midpoint of the concentration-response curve – was less than 100 nM.

For the molecule `c1ccc2cc(NC3=NCC4(CN5CCC4C5)O3)ncc2c1` (single isomer, unassigned) [Example 7b], the EC50 in test [2] (setting [3]) is less than 100 nM.

Turning to `c1cnc2sc(NC3=NCC4(CN5CCC4C5)O3)nc2c1` (single isomer, unassigned) [Example 8a], the figures for the EC50 in test [2] (setting [4]) and in test [2] (setting [3]) were 121 nM and 100 to 1000 nM, respectively.

In turn, `c1cnc2sc(NC3=NCC4(CN5CCC4C5)O3)nc2c1` (single isomer, unassigned) [Example 8b] yielded an EC50 in test [2] (setting [3]) of less than 100 nM.

For `c1ccc2cc(NC3=NCC4(CN5CCC4C5)O3)ncc2c1` (single isomer, unassigned) [Example 16a], the EC50 in test [2] (setting [3]) is 1000 to 100000 nM.

Molecule `c1ccc2cc(NC3=NCC4(CN5CCC4C5)O3)ncc2c1` (single isomer, unassigned) [Example 16b] returned a concentration giving a half-maximal response (EC50) in test [2] (setting [3]) of less than 100 nM.

As to `c1cnc2sc(NC3=NCC4(CN5CCC4C5)O3)nc2c1` (single isomer, unassigned) [Example 17a], the EC50 in test [2] (setting [3]) lay within 1000 to 100000 nM.

On to `c1cnc2sc(NC3=NCC4(CN5CCC4C5)O3)nc2c1` (single isomer, unassigned) [Example 17b], for which the EC50 in test [2] (setting [4]) was 35 nM; in test [2] (setting [3]), less than 100 nM.

`c1cncc(-c2cc(NC3=NC[C@@]4(C[N@@]5CC[C@@H]4C5)O3)ncn2)c1` [Example 11, (3R,4R)—N-(6-(Pyridin-3-yl)pyrimidin-4-yl)-4′H-1-azaspiro[bicyclo[2.2.1]heptane-3,5′-oxazol]-2′-amine]: the EC50 in test [2] (setting [4]) was 34 nM; in test [2] (setting [3]), less than 100 nM.

On to `COc1cc(NC2=NC[C@@]3(C[N@@]4CC[C@@H]3C4)O2)ncn1` [Example 13, (3R,4R)—N-(6-Methoxypyrimidin-4-yl)-4′H-1-azaspiro[bicyclo[2.2.1]heptane-3,5′-oxazol]-2′-amine], for which the EC50 in test [2] (setting [3]) was 100 to 1000 nM.

In turn, `Clc1cnc(NC2=NC[C@@]3(C[N@@]4CC[C@@H]3C4)O2)cn1` [Example 14, (3R,4R)—N-(5-Chloropyrazin-2-yl)-4′H-1-azaspiro[bicyclo[2.2.1]heptane-3,5′-oxazol]-2′-amine] had an EC50 in test [2] (setting [3]) of 100 to 1000 nM.

In turn, `c1ccc(-c2ccnc(NC3=NC[C@@]4(C[N@@]5CC[C@@H]4C5)O3)n2)cc1` [Example 15, (3R,4R)—N-(4-Phenylpyrimidin-2-yl)-4′H-1-azaspiro[bicyclo[2.2.1]heptane-3,5′-oxazol]-2′-amine] yielded an EC50 in test [2] (setting [3]) of less than 100 nM.

The molecule `c1cc(-c2cc(NC3=NC[C@@]4(C[N@@]5CC[C@@H]4C5)O3)ncn2)ccn1` [Example 18, (3R,4R)—N-(6-(Pyridin-4-yl)pyrimidin-4-yl)-4′H-1-azaspiro[bicyclo[2.2.1]heptane-3,5′-oxazol]-2′-amine] displayed an EC50 in test [2] (setting [3]) of less than 100 nM.

Regarding `c1cn(-c2cc(NC3=NC[C@@]4(C[N@@]5CC[C@@H]4C5)O3)ncn2)cn1` [Example 19, (3R,4R)—N-(6(1H-Imidazol-1-yl)pyrimidin-4-yl)-4′H-1-azaspiro[bicyclo[2.2.1]heptane-3,5′-oxazol]-2′-amine], the EC50 in test [2] (setting [4]) is 45 nM; in test [2] (setting [3]), less than 100 nM.

On to `Clc1cn(-c2cc(NC3=NC[C@@]4(C[N@@]5CC[C@@H]4C5)O3)ncn2)cn1` [Example 20, (3R,4R)—N-(6-(4-Chloro-1H-imidazol-1-yl)pyrimidin-4-yl)-4′H-1-azaspiro[bicyclo[2.2.1]heptane-3,5′-oxazol]-2′-amine], for which the EC50 in test [2] (setting [4]) is 129 nM; in test [2] (setting [3]) it was 100 to 1000 nM.

For `c1nc(NC2=NC[C@@]3(C[N@@]4CC[C@@H]3C4)O2)cc(-n2cncn2)n1` [Example 21, (3R,4R)—N-(6-(1H-1,2,4-Triazol-1-yl)pyrimidin-4-yl)-4′H-1-azaspiro[bicyclo[2.2.1]heptane-3,5′-oxazol]-2′-amine], the EC50 in test [2] (setting [3]) was less than 100 nM.

Molecule `Cc1cn(-c2cc(NC3=NC[C@@]4(C[N@@]5CC[C@@H]4C5)O3)ncn2)cn1` [Example 22, (3R,4R)—N-(6-(4-Methyl-1H-imidazol-1-yl)pyrimidin-4-yl)-4′H-1-azaspiro[bicyclo[2.2.1]heptane-3,5′-oxazol]-2′-amine] registered an EC50 in test [2] (setting [3]) of 100 to 1000 nM.

`COc1c(NC2=NC[C@@]3(C[N@@]4CC[C@@H]3C4)O2)ncnc1N1CCCC1` [Example 23, (3R,4R)—N-(5-Methoxy-6-(pyrrolidin-1-yl)pyrimidin-4-yl)-4′H-1-azaspiro[bicyclo[2.2.1]heptane-3,5′-oxazol]-2′-amine]: the EC50 in test [2] (setting [5]) was less than 100 nM.

On to `c1ccc2nc(NC3=NC[C@@]4(C[N@@]5CC[C@@H]4C5)O3)nnc2c1` [Example 24, (3R,4R)—N-(Benzo[e][1,2,4]triazin-3-yl)-4′H-1-azaspiro[bicyclo[2.2.1]heptane-3,5′-oxazol]-2′-amine], for which the EC50 in test [2] (setting [5]) is less than 100 nM.

Consider `Clc1ccc2oc(NC3=NC[C@@]4(C[N@@]5CC[C@@H]4C5)O3)nc2c1` [Example 25, (3R,4R)—N-(5-Chlorobenzo[d]oxazol-2-yl)-4′H-1-azaspiro[bicyclo[2.2.1]heptane-3,5′-oxazol]-2′-amine], for which the EC50 in test [2] (setting [5]) is less than 100 nM.

For the molecule `c1nc(NC2=NC[C@@]3(C[N@@]4CC[C@@H]3C4)O2)c2sccc2n1` [Example 27, (3R,4R)—N-(Thieno[3,2-d]pyrimidin-4-yl)-4′H-1-azaspiro[bicyclo[2.2.1]heptane-3,5′-oxazol]-2′-amine], the EC50 in test [2] (setting [3]) was in the range of 100 to 1000 nM.

Take `Cc1csc2c(NC3=NC[C@@]4(C[N@@]5CC[C@@H]4C5)O3)ncnc12` [Example 28, (3R,4R)—N-(7-Methylthieno[3,2-d]pyrimidin-4-yl)-4′H-1-azaspiro[bicyclo[2.2.1]heptane-3,5′-oxazol]-2′-amine]: the concentration giving a half-maximal response (EC50) in test [2] (setting [4]) is 222 nM; in test [2] (setting [3]), 100 to 1000 nM.

`Cc1ccc2nc(NC3=NC[C@@]4(C[N@@]5CC[C@@H]4C5)O3)oc2c1` [Example 29, (3R,4R)—N-(6-Methylbenzo[d]oxazol-2-yl)-4′H-1-azaspiro[bicyclo[2.2.1]heptane-3,5′-oxazol]-2′-amine]: in test [2] (setting [5]), the EC50 is less than 100 nM.
